The text below walks through data of US10494356B2, “Compound promoting osteoblast differentiation and inhibiting adipocyte differentiation, preparation method thereof and application thereof” (SUNG KYUN BIOTECH CO., LTD., priority 2016, dated 2019).

What all share (type): cell-based, mouse
Assay [1] has as its system ALP mRNA in C3H10T1/2 cells. As to the kind of experiment: mRNA expression of osteoblast differentiation factor ALP (real-time PCR). Particulars: for expression level of ALP, osteogenesis marker (mRNA): Test Example 3: NK11 at 1 μM, other compounds at 5 μM. The text has this:
(§1) The mRNA expression levels of the osteoblast differentiation factor and the adipocyte differentiation factor in the cells treated with the NK11 compound were investigated.
(§2) First, the expression level of the osteoblast differentiation factor ALP was investigated while differentiating the C3H10T1/2 cells into osteoblasts in the same manner as in […]. Also, the expression levels of the adipocyte differentiation factors PPARγ, aP2 and CD36 compound were investigated while differentiating the C3H10T1/2 cells into adipocytes in the same manner as in Test Example 1.
(§3) Total RNA was extracted using TRIzol (Invitrogen). 1 μg of the isolated RNA was synthesized into cDNA by adding random primers, dNTP and PrimeScript™ reverse transcriptase (Takara). The synthesized cDNA was subjected to real-time PCR using primers and SYBR Premix Ex Taq (Takara).

For assay [2], the system named is C3H10T1/2 cells. The assay is described as follows: Fat production during differentiation of C3H10T1/2 cells into adipocytes (Oil Red O staining). Particulars: for effect of inhibiting adipocyte differentiation: Test Example 3: NK11 at 1 μM, other compounds at 5 μM, vs negative control group (DMSO). The procedure: After plating the cells on a 6-well plate in the same manner as in Test Example 1, they were cultured for 9 days in a medium containing 1 μM dexamethasone, 5 μg/mL insulin and 1 μM troglitazone for adipocyte differentiation after adding the NK11 compound at 0.1, 0.5, 1 and 5 μM. After completion of differentiation, the medium was removed and the cells were fixed with 10% neutral buffered formalin and stained with 0.5% Oil Red O solution.
Then, the Lab color space was measured using the image files of the Oil Red O-stained well plate.

Assay [3] has as its system C3H10T1/2 cells. The assay is described as follows: ALP (alkaline phosphatase) production during differentiation of C3H10T1/2 cells into osteoblasts (ALP staining, -b value). The procedure: The C3H10T1/2 cells derived from mouse embryo fibroblasts are pluripotent stem cells that can differentiate into various cell lineages including osteoblasts. Because one of the characteristics of osteoblasts is the ALP (alkaline phosphatase) activity, the differentiation of the C3H10T1/2 cells into osteoblasts was measured based on the ALP activity.
The C3H10T1/2 cells were cultured with a DMEM medium supplemented with 10% FBS and 1% penicillin/streptomycin under the condition of 37° C. and 5% CO2. The C3H10T1/2 cells were cultured on a 6-well plate at a concentration of 2.5×10^4/mL with a medium containing 10 mM β-glycerophosphate and 50 μg/mL ascorbic acid for osteocyte differentiation. The differentiation was performed for 9 days after adding the NK11 compound at 0.1, 0.5, 1 and 5 μM, while replacing the medium with 3-day intervals. Then, ALP staining was performed using 5-bromo-4-chloro-3-indolyl phosphate/nitro blue tetrazolium (BCIP/NBT).
Then, the Lab color space was measured using the image files of the ALP-stained well plate.

Assay [4] relates to PPARγ, aP2 and CD36 mRNAs in C3H10T1/2 cells. The assay is described as follows: mRNA expression of adipocyte differentiation factors PPARγ, aP2 and CD36 (real-time PCR).
Description: as §1, §2, §3
(Real-time PCR tracks product formation cycle by cycle.)

Setting [5] is: Test Example 3: NK11 at 1 μM, other compounds at 5 μM, vs negative control group (DMSO).
Setting [6] is: Test Example 3: NK11 at 1 μM, other compounds at 5 μM.
Setting [7] is: 0.1, 0.5, 1 and 5 μM, 9 days differentiation, compared to DMSO-treated negative control.

On to `COC(=O)[C@@H]1[C@@H](C(=O)OC)[C@H](c2cc(OC)c(O)c(OC)c2)O[C@H]1c1cc(OC)c(O)c(OC)c1` [Chemical Formula 2], for which the “expression level of ALP, osteogenesis marker (mRNA)” value (shortened to “expression level of ALP”) in assay [1] was “no effect”. In the assay with C3H10T1/2 cells [2], the “effect of inhibiting adipocyte differentiation” value is given as “no difference in the effect of inhibiting adipocyte differentiation from the negative control group (DMSO)”. The ALP production entry with C3H10T1/2 cells [3] (setting [5]) is recorded as “no difference in ALP production from the negative control group (DMSO)”. For the same compound, in assay [4] (setting [6]), the “expression levels of the adipocyte-related genes CD36, aP2 and PPARγ” value (shortened to “expression levels”) is “no effect”.
Consider `COCOc1c(OC)cc([C@@H]2O[C@@H](c3cc(OC)c(OCOC)c(OC)c3)[C@H](CO)[C@H]2CO)cc1OC` [Chemical Formula 4], for which the “expression level of ALP” value in assay [1] is on record as “no effect”. For the same compound, the “effect of inhibiting adipocyte differentiation” value with C3H10T1/2 cells [2] was “no difference in the effect of inhibiting adipocyte differentiation from the negative control group (DMSO)”. Besides, the ALP production entry in the assay with C3H10T1/2 cells [3] (setting [5]) is given as “no difference in ALP production from the negative control group (DMSO)”. The “expression levels” value in assay [4] (setting [6]) is on record as “no effect”.
`COc1cc([C@@H]2O[C@@H](c3cc(OC)c(O)c(OC)c3)[C@H](COC(=O)/C=C/c3ccc(O)cc3)[C@H]2COC(=O)/C=C\c2ccc(O)cc2)cc(OC)c1O` [Chemical Formula 8]: the “expression of ALP, osteogenesis marker (mRNA)” value in assay [1] (at the concentration of 5 μM) is recorded as “expressed highly”. Besides, in the assay with C3H10T1/2 cells [2] (setting [7]), the “fat production by adipocytes (Oil Red O)” value is “inhibited fat production by adipocytes in a concentration-dependent manner”. Besides, the ALP production result with C3H10T1/2 cells [3] (setting [7]) is “increased ALP production in a concentration-dependent manner”. Moreover, the “expression levels” value in assay [4] (0.1, 0.5, 1 and 5 μM, mRNA, real-time PCR) was “decreased the expression levels of the adipocyte-related genes CD36, aP2 and PPARγ in a concentration-dependent manner”.
As to `COc1cc([C@@H]2O[C@@H](c3cc(OC)c(O)c(OC)c3)[C@H](COC(=O)/C=C/c3ccccc3)[C@H]2COC(=O)/C=C/c2ccccc2)cc(OC)c1O` [Chemical Formula 9], the “expression level of ALP” value in assay [1] is “high”. Further, the “effect of inhibiting adipocyte differentiation” value in the assay on C3H10T1/2 cells [2] is recorded as “showed the effect of inhibiting adipocyte differentiation as the NK11 compound”. For the same compound, the ALP production entry in the assay on C3H10T1/2 cells [3] (setting [5]) is listed as “significant effect of promoting ALP production although slightly lower than that of NK11”. For the same compound, the “ALP production as compared to the NK11 compound” value in the assay with C3H10T1/2 cells [3] (Test Example 3: compound at 5 μM vs NK11 at 1 μM) is on record as “about 2 times”. For the same compound, the “expression levels” value in assay [4] (setting [6]) is “decreased”.
Consider `COc1cc([C@@H]2O[C@@H](c3cc(OC)c(O)c(OC)c3)[C@H](CO)[C@H]2CO)cc(OC)c1O` [Chemical Formula 10], for which, in assay [1], the “expression level of ALP” value was “no effect”. Further, in the assay on C3H10T1/2 cells [2], the “effect of inhibiting adipocyte differentiation” value was “no difference in the effect of inhibiting adipocyte differentiation from the negative control group (DMSO)”. The ALP production entry in the assay on C3H10T1/2 cells [3] (setting [5]) was “no difference in ALP production from the negative control group (DMSO)”. Also, the “expression levels” value in assay [4] (setting [6]) is reported as “no effect”.
As to `COc1cc([C@@H]2O[C@@H](c3cc(OC)c(O)c(OC)c3)[C@H](COC(C)=O)[C@H]2COC(C)=O)cc(OC)c1O` [Chemical Formula 11], in assay [1], the “expression level of ALP” value was “no effect”. Besides, in the assay with C3H10T1/2 cells [2], the “effect of inhibiting adipocyte differentiation” value is listed as “no difference in the effect of inhibiting adipocyte differentiation from the negative control group (DMSO)”. Further, the ALP production result with C3H10T1/2 cells [3] (setting [5]) is reported as “no difference in ALP production from the negative control group (DMSO)”. The “expression levels” value in assay [4] (setting [6]) is listed as “no effect”.
